# Measured values published in patent US20130202698A1 (NANJING SANHOME PHARMACEUTICAL CO., LTD., priority 2005, published 2013).
# Where two headings read alike, the source gives them in different places. Marks after values point to notes of the source that are not given here.
# Experiments:
# [1] = test system: motor balance and coordination; conditions: both, mouse, in vivo, 3 mg/kg
# Method: Motor balance and coordination were tested using a modified beam walking method. Mice were put on a smooth beam tilted at an angle of 70 degree. Mice passed the test by standing on the beam for 0.5 minute without falling off. All the mice were pre-screened before the studies, and a total of 110 mice were selected by passing the beam test in 3 consecutive tries. The selected mice were divided into 11 groups with 10 mice in each group (half male and half female). At certain time points after drug administration, mice were tested on the beam for 3 consecutive times. A mouse was counted as failing to the test if it fell off the beam for 2 or more times.
# The dose volume was 0.2 mL/10 gram and infusion rate was 0.2 mL/10 seconds. Chlorpromazine was used as the positive control.
# [2] = test system: spontaneous activities of mice; conditions: both, mouse, in vivo, 3 mg/kg
# Method: Mice weighing 18-22 g, half male and half female, were placed in the laboratory 24 hours before the test to adapt to the environment. The room temperature was controlled at 24±2° C. Animals were fasted for 8 hours before testing, and then placed in a transparent cage. The number of spontaneous activities of mice was counted by an automatic device (model XZ-4 by Drug Research Institute of China Academy of Medical Sciences). Mice were pre-screened by counting their spontaneous activities for five minutes and unqualified mice were excluded. A total of 110 mice were selected and divided into 11 groups with 10 mice in each group.
# Chlorpromazine (3 mg/kg) was used as the positive control. The dose volume was 0.2 mL/10 gram and infusion rate was 0.2 mL/10 seconds.
# [3] = test system: thiosemicarbazide-induced convulsion; experiment: Anticonvulsant effects on thiosemicarbazide-induced convulsion in mice; assay type: in vivo; conditions: 2 mg/kg, positive control, n=10
# Method: (§1) Mice are randomized into 4 treatment groups (n=10 with half male and half female): dextro- or levo-ornidazole (dosage 40, 80, 160 mg/kg), vehicle control group (15% propylene glycol in 0.9% sodium chloride, 20 mL/kg) and the positive control group. Animals are treated with known convulsion-inducing agents, followed by the drug or vehicle control given intravenously. The dose volume is 20 mL/kg with an infusion rate of 0.2 mL/10 seconds. The anticonvulsant effects are observed and recorded (see Tables 2-6).
# [4] = test system: Strychnine-induced convulsion; experiment: Anticonvulsant effects on Strychnine-induced convulsion in mice; assay type: in vivo; conditions: 2 mg/kg, positive control, n=10
# Method: as §1
# [5] = test system: isoniazid-induced convulsion; experiment: Anticonvulsant effects on isoniazid-induced convulsion in mice; assay type: in vivo; conditions: 2 mg/kg, positive control, Mean ± SD, n=10
# Method: as §1
# [6] = test system: Remefline-induced convulsion; experiment: Anticonvulsant effects on Remefline-induced convulsion in mice; assay type: in vivo; conditions: 2 mg/kg, positive control
# Method: In one experiment, the anticonvulsant effects of levo- and dextro-ornidazole against drug-induced convulsions in mice were compared. In four different animal convulsion models, mice were treated by four different seizure-inducing agents, including Remefline, Strychnine, isoniazid, thiosemicarbazide. Levo- or dextro-ornidazole was administered along with the seizure-inducing agents, and several outcomes were measured, including rate of convulsion, mortality rate, time to convulsion (latency), and time to death. Diazepam was used as a positive anticonvulsant control.
# as §1, with “seconds.” for “seconds. The anticonvulsant effects are observed and recorded (see Tables 2-6).”
# righting reflex = experiment: Hypnotic effect, loss of righting reflex; assay type: in vivo; conditions: mice, positive control, 40 mg/kg (Table 9), 10 animals
smiles,measurement,setting,value
CN(C)CCCN1c2ccccc2Sc2ccc(Cl)cc21 [Chlorpromazine],Number of Animals Fall Off,[1]; 0.5 h,10
same,Number of Animals Fall Off,[1]; 1 h,10
same,Number of Animals Fall Off,[1]; 2 h,10
same,Number of Animals Fall Off,[1]; 3 h,9
same,Number of Animals Fall Off,[1]; 4 h,5
same,Spontaneous Activities (per 5 min),[2]; 0.5 h,5 ± 2 per 5 min
same,Spontaneous Activities (per 5 min),[2]; 1 h,6 ± 4 per 5 min
same,Spontaneous Activities (per 5 min),[2]; 2 h,13 ± 6 per 5 min
same,Spontaneous Activities (per 5 min),[2]; 3 h,21 ± 9 per 5 min
same,Spontaneous Activities (per 5 min),[2]; 4 h,35 ± 9 per 5 min
CN1C(=O)CN=C(c2ccccc2)c2cc(Cl)ccc21 [Diazepam],Mortality Rate,[3],0/10**
same,Rate of Convulsion,[3],2/10**
same,Mortality Rate,[4],0/10**
same,Convulsion Latency,[5],57.4 ± 9.7 min
same,Time to Death,[5],79.0 ± 12.9 min
same,Rate of Convulsion,[6]; n=10,0/10**
same,Mortality Rate,"[6]; n=10, 2 mg/kg",0/10**
same,Mortality Rate,"[6]; n=10, listed as diazepam",0/10
"CCCC(C)C1(CC)C(=O)NC(=O)NC1=O (stereo not shown) [Pentobarbital, Sodium pentobarbital]",Number of animals Loss of Righting Flex 30 min Post-dose,righting reflex,10**
